Test results published in article PMC2438350, “Comparison of four different colorimetric and fluorometric cytotoxicity assays in a zebrafish liver cell line” (BMC Pharmacology, 2008).

Tests used:
Type in all cases: cell-based, zebrafish (Danio rerio)
ZFL cells [1] = assay: LDH assay (released lactate dehydrogenase activity), cytotoxicity; conditions: for EC10 (10% loss of cell viability): 24 h exposure, 1% FBS, mean ± SD of three experiments; for EC50: read-out: EC50 (50% loss of cell viability), 24 h exposure, 1% FBS, mean ± SD of three experiments
Method: (§1) Each compound was dissolved in dimethyl sulfoxide (DMSO) and diluted in a way that all stock solutions were 200 times concentrated compared to the final test concentrations. Concentration ranges were 30 pM-1.97 μM for BaP, 5 nM-5 μM for Flus, 5 nM-11 μM for Tam, and 0.2–43 μM for 4-OHT, which is in the range of in vivo studies with waterborne exposure of zebrafish for BaP, Tam, and 4-OHT [20-22, 29]. For Flusilazole, no studies on fish are available.
(§2) For finding the optimal biological test conditions, in the beginning different cell densities were applied using two-fold dilution series in the range of 780–100,000 cells/well and cell viability tests were performed after 24 h. […] Thus, cells were plated in 96 well flat-bottom plates at an initial cell density of 25,000 cells/well in 200 μL of medium and allowed to settle for 24 h. In parallel, wells containing only medium without cells were prepared and used later on for background correction. After the pre-incubation period, for each test compound and each concentration, 1 μL of the DMSO stock solutions was added so that the final DMSO content was 0.5%. All tests were performed at least three times and each time in triplicate.
A second set of cells was exposed to the test compounds for the LDH assay, which was performed using the Cytotoxicity Detection Kit LDH (Roche). For this assay, a positive control, leading to 100% cytotoxicity by lysing the cells completely, was included in the assay. The positive control was 2% Triton X-100 solution in the assay medium, as proposed by the manufacturer. After pre-incubation of the cells, before addition of the test compounds, the growth medium was exchanged from medium containing 5% FBS to medium containing only 1% FBS. Then, test compounds in DMSO were dosed and plates incubated as for the other assays for 24 h. For testing the released LDH activity, 100 μL of culture medium were transferred to a new 96 well plate. 100 μL of the reaction solution from the kit, containing the detection dye and the catalyst were then added and absorption was measured after 30 min at 490 nm with 655 nm as reference wavelength in an ELISA reader (Model 680, Biorad). As for the other assays, background values from wells without cells were subtracted and average values for the triplicates calculated. Cytotoxicity was then calculated according to the following equation: Cytotoxicity (%) = (experimental value - DMSO control)/(positive control - DMSO control) × 100.
(§3) For each single assay, data were evaluated separately for three independent experiments. Dose-response curves were fitted using a nonlinear-regression sigmoidal dose-response curve model provided in the GraphPad Prism software (GraphPad software, Inc., San Diego, USA). EC10 and EC50 values were derived from these fitted curves for the single experiments. Final EC-values (Table 1) were calculated as average of three independent experiments with the standard deviation of the mean indicating the variation. Data from the different assays were statistically compared using One way ANOVA analysis with Tukey's test as post-ANOVA analysis (p < 0.05).

ZFL cells [2] = assay: MTT assay, cytotoxicity; conditions: for EC10 (10% loss of cell viability): 24 h exposure, mean ± SD of three experiments; for EC50: read-out: EC50 (50% loss of cell viability), 24 h exposure, mean ± SD of three experiments
Method: as §1, §2
The MTT assay was performed using the cell proliferation kit I MTT (Roche) according to the manufacturer's protocol. In brief, after 24 h of incubation with the test compounds, 100 μL of medium were removed from each well. Then, 10 μL of the MTT solution were added and plates incubated for 4 h at 28°C. Since the manufacturer recommends incubation at 37°C and ZFL cells have to be incubated at 28°C, we tested different incubation times with MTT (2, 4, and 6 h) to establish optimized conditions. […] After the incubation with MTT, the solubilization solution was added and plates incubated over night. The next day, absorption of the produced formazan was measured at 570 nm with 680 nm as reference wavelength using a microplate reader (Infinite 200, Tecan). For data evaluation, background and reference wavelength corrected absorption values were averaged for the triplicates and expressed as "% cytotoxicity" referring to the untreated control containing only the solvent DMSO.
as §3

ZFL cells [3] = assay: alamarBlue (AB) assay, cytotoxicity; conditions: for EC10 (10% loss of cell viability): 24 h exposure, mean ± SD of three experiments; for EC50: read-out: EC50 (50% loss of cell viability), 24 h exposure, mean ± SD of three experiments
Method: as §1, §2
(§4) The fluorogenic indicator dyes alamarBlue® (AB) (BioSource, Invitrogen) and CFDA-AM (5-carboxyfluorescein diacetate acetoxymethyl ester; Molecular Probes, Invitrogen) were used in combination on a third set of cells, since it was shown before that their fluorescent products can be detected at different non-interfering wavelengths. AB was obtained as ready-to-use stock solution, which had to be diluted 200 times to obtain the working solution. CFDA-AM powder was dissolved in DMSO to a stock solution of 4 mM, which was diluted 1000 times to reach the 4 μM working solution. […] For this purpose, cells were exposed to the dyes dissolved in culture medium without FBS or in Earle's-G medium. […] The AB/CFDA-AM assay was then performed according to [10]. In brief, after 24 h of incubation with the test compounds, the medium was aspirated off completely and 100 μL/well of the alamarBlue/CFDA-AM working solution were added. After 30 min of incubation, fluorescence was measured at 530 nm excitation/590 nm emission for AB and 485 nm/535 nm for CFDA-AM, respectively, using a fluorescence plate reader (Infinite 200, Tecan). For data evaluation, average values of triplicates were calculated after background correction and all average values for the treatments referred to the DMSO control, in order to express data as "% cytotoxicity".
as §3

ZFL cells [4] = assay: CFDA-AM assay, cytotoxicity; conditions: for EC10 (10% loss of cell viability): 24 h exposure, mean ± SD of three experiments; for EC50: read-out: EC50 (50% loss of cell viability), 24 h exposure, mean ± SD of three experiments
Method: as §1, §2, §4, §3

| Compound | EC10 (10% loss of cell viability) (ZFL cells [1]) [µM] | EC50 (ZFL cells [1]) [µM] | EC10 (10% loss of cell viability) (ZFL cells [2]) [µM] | EC50 (ZFL cells [2]) [µM] | EC10 (10% loss of cell viability) (ZFL cells [3]) [µM] | EC50 (ZFL cells [3]) [µM] | EC10 (10% loss of cell viability) (ZFL cells [4]) [µM] | EC50 (ZFL cells [4]) [µM] | EC50 (ZFL cells [1]; Danio rerio) [µM] | EC50 (ZFL cells [2]; Danio rerio) [µM] | EC50 (ZFL cells [3]; Danio rerio) [µM] | EC50 (ZFL cells [4]; Danio rerio) [µM] |
| --- | --- | --- | --- | --- | --- | --- | --- | --- | --- | --- | --- | --- |
| CC/C(=C(\c1ccc(O)cc1)c1ccc(OCCN(C)C)cc1)c1ccccc1.Cl [4-OH-Tamoxifen, trans-4-Hydroxy-Tamoxifen] | 0.73 ± 0.55 | 1.62 ± 0.01 | 1.49 ± 0.82 | 1.78 ± 0.4 | 0.79 ± 0.40 | 1.17 ± 0.24 | 1.08 ± 0.62 | 1.73 ± 0.67 |  |  |  |  |
| C[Si](Cn1cncn1)(c1ccc(F)cc1)c1ccc(F)cc1 [Flusilazole] | 2.28 ± 3.12 |  | 11.29 ± 5.88 |  | 16.13 ± 11.44 |  | 6.49 ± 1.08 |  | 17.4 ± 14.5 | 18.4 ± 14.1 | 26.4 ± 7.3 | 16.7 ± 4.76 |
| CC/C(=C(\c1ccccc1)c1ccc(OCCN(C)C)cc1)c1ccccc1 [Tamoxifen] | 0.61 ± 0.67 |  | 1.39 ± 0.77 |  | 1.37 ± 0.33 |  | 2.52 ± 2.14 |  |  |  |  |  |
